Data reported in PubChem BioAssay AID743417 (Broad Institute, 2014).
Records with an inconclusive call do not appear. The source made the active and inactive calls.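 Rule for the calls: active = compounds lowering the luciferase signal with a fitted half-maximal dose at most twice their top valid dose (cut at about 30 µM in these data); inconclusive = flat fits with moderate signal loss, or poor fits; inactive = the rest.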

Tested on: Clone20 osteoblast Shn3 3'UTR firefly luciferase, 24 h
Assay: Shn3 3'UTR reporter inhibitors, dose response, cell-based, Clone20 osteoblasts, luminescence, dry powder, set 2 (AID 743417)

SMILES	AC50
CC(C)N(CCC(=O)c1ccc2ccccc2c1)Cc1ccccc1	4220 nM
Cc1ccc(S(=O)(=O)NCc2ccc(C(=O)N3CCN(c4ccc([N+](=O)[O-])cc4)CC3)cc2)cc1	3790 nM
CCN(CC)c1ccc(NC(=O)CN2C(=O)CSc3ncccc32)c(C)c1	1780 nM
CCOC(=O)N1CCN(C(=O)c2ccc3c(c2)N(Cc2ccc(C)cc2)CCS3)CC1	6000 nM
CC(=O)NC(c1cc(Cl)c2cccnc2c1O)C(C)C (stereo not drawn)	2960 nM
COc1ccc(CCNc2cc(N3CCN(C(=O)c4ccccc4F)CC3)ccc2[N+](=O)[O-])cc1OC	1260 nM
O=C(Nc1ccc([N+](=O)[O-])cc1Cl)c1cc(Cl)ccc1O	3000 nM
O=C1C(Br)=C(c2ccccc2)C(c2ccccc2)=C1c1ccccc1	460 nM
Cc1cc(Nc2ccccc2)nc(NCc2ccccc2)n1	1040 nM
CC(C)CCOc1cccc(OCC(=O)Nc2ccncc2)c1	571 nM
NC(=O)c1ccc(N2CCN(S(=O)(=O)c3cccs3)CC2)c([N+](=O)[O-])c1	305 nM
Oc1c(C(c2ccccc2Cl)N2CCCC2)ccc2cccnc12 (stereo not drawn)	5770 nM
COc1ccc(-c2nc(NC(=O)C3CC(=O)N(c4ccc5c(c4)OCCO5)C3)sc2C)cc1 (stereo not drawn)	5240 nM
CCc1nnc(NC(=O)c2cccc(C(=O)Nc3nnc(CC)s3)n2)s1	1450 nM
CCCCCOC(=O)c1[nH]c2c(c1C)C(=O)CC(c1ccco1)C2 (stereo not drawn)	1490 nM
COc1ccc(Oc2cc(NC(=O)c3nn(C)cc3[N+](=O)[O-])cc([N+](=O)[O-])c2)cc1	813 nM
CC(CNC(=O)c1cc(COc2ccc3ncccc3c2)on1)c1ccccc1 (stereo not drawn)	3730 nM
CCCCCCCN1C(Nc2ccccc2)=NC[C@@H]1Cc1ccccc1	4820 nM
CN1CCN(S(=O)(=O)c2ccc(Sc3nnnn3-c3ccccc3)c([N+](=O)[O-])c2)CC1	3900 nM
COc1ccccc1NS(=O)(=O)c1cccc(C(=O)NC2CCN(Cc3ccccc3)CC2)c1	1950 nM
COc1ccccc1-c1cc(C(F)(F)F)nc(S(=O)(=O)CCCC(=O)Nc2cc(C)on2)n1	6570 nM
CCOc1ccccc1Nc1cc(C)nc2ccccc12	8140 nM
Cc1cccc(Nc2nc(NCc3ccco3)c3ccccc3n2)c1	2050 nM
Cc1cccc(N2CCN(C(=S)Nc3ccc4nc(N5CCN(C)CC5)cc(C)c4c3)CC2)c1C	5450 nM
Fc1ccc(NC(=S)N2CCCN(c3ccc(C(F)(F)F)cn3)CC2)c(F)c1	3710 nM
O=C1NCCOC(=O)[C@@H](Cc2ccc(F)cc2)CC/C=C/C[C@@H]1CC(=O)N(CCO)Cc1ccccc1	> 70000 nM (inactive)

SMILES	AC50
COc1ccc(CCNc2cc(N3CCN(C(=O)c4ccccc4OC)CC3)ccc2[N+](=O)[O-])cc1OC	2630 nM
O=C(Oc1c(CN2CCOCC2)cc(Cl)c2cccnc12)c1ccccc1Cl	4590 nM
CC(=O)OCCNc1cc(Sc2nc3ccccc3[nH]2)c2nonc2c1[N+](=O)[O-]	1860 nM
O=[N+]([O-])/C=C/c1cn(Cc2ccc(Cl)cc2)c2ccccc12	8320 nM
CCOC(=O)C1CCCN(S(=O)(=O)c2ccc(S(=O)(=O)N(CC)CC)cc2)C1 (stereo not drawn)	512 nM
CC(=O)NC(c1ccc(C)cc1)c1cc(Cl)c2cccnc2c1O (stereo not drawn)	2120 nM
COc1ccc(CNCCc2ccc(Cl)cc2)cc1OCc1ccccc1	5590 nM
CC(C)c1ccc(NC(=O)Nc2nc(C(N)C3CCCCC3)cs2)cc1 (stereo not drawn)	7290 nM
CC(C)(C)c1cc(C(c2cccnc2)N2CCN(CCO)CC2)cc(C(C)(C)C)c1O (stereo not drawn)	1700 nM
Nc1ncnc2c1c(-c1ccc(Oc3ccccc3)cc1)cn2C1CCCC1	658 nM
CC(C)(C)Nc1nc(-c2ccccn2)nc2ccccc12	1860 nM
NC1=NC[C@@H](CC2CCCCC2)N1CCc1cc(C(F)(F)F)cc(C(F)(F)F)c1	9920 nM
CCOC(=O)C1(Cc2ccc(Cl)cc2)CCN(C(C)Cc2ccc(O)c(OC)c2)CC1 (stereo not drawn)	1330 nM
CN1CCN(Cc2nc3ccccc3c(=O)n2Cc2nc(-c3ccc4ccccc4c3)cs2)CC1	11000 nM
CCCNC(=O)c1nnsc1S(=O)(=O)c1ccc(Cl)cc1	3630 nM
O=C(c1cc(COc2cccc3cnccc23)on1)N1CCCC(CCCO)C1 (stereo not drawn)	519 nM
CCOC(=O)c1c2c(n(-c3ccc(OC)cc3)c1C)C(=O)C(=O)c1ccccc1-2	3150 nM
O=C(C(=Cc1ccccc1)CN1CCCCC1)c1ccccc1	3180 nM
Cn1nnnc1Sc1ncnc2scc(-c3ccc(Br)cc3)c12	334 nM
CSc1ccc(CN(C)C(=O)c2cccc(S(=O)(=O)N3CCN(Cc4ccccc4)CC3)c2)cc1	2890 nM
NC(=O)CC(NC(=O)c1ccccc1)c1ccc(N2CCC(Cc3ccccc3)CC2)c([N+](=O)[O-])c1 (stereo not drawn)	2610 nM
Cc1sc2ncnc(N3CCN(CCOc4ccc(Cl)cc4)CC3)c2c1C	1350 nM
CC(C)(C)C(=O)NC(=S)NNC(=O)c1sc2ccccc2c1Cl	19100 nM
CN(c1cccc(NC(=O)CN(c2ccc(C34CC5CC(CC(C5)C3)C4)cc2)S(C)(=O)=O)c1)S(C)(=O)=O	7580 nM
O=C1CCCN2N=C(SCC(=O)Nc3cccc(C(F)(F)F)c3)SC2=N1	4370 nM
Cc1c(C(=O)Nc2cccc(C(F)(F)F)c2)oc2ccc(S(=O)(=O)N3CCOCC3)cc12	3800 nM

SMILES	AC50
Cn1nc(-c2ccc(Cl)cc2)c2cc(C(=O)N3CCN(c4ccccn4)CC3)sc21	4020 nM
Cc1ccccc1CS(=O)(=O)c1nnc([C@H](Cc2ccccc2)NC(=O)OC(C)(C)C)o1	1230 nM
CCCC(=O)OCCNc1cc(Sc2nccn2C)c2nonc2c1[N+](=O)[O-]	7220 nM
Cc1ccc(-n2nnnc2-c2cnc(-c3cccnc3)nc2C(F)(F)F)cc1	5890 nM
CCOC(=O)c1cnc(-n2nc(C)cc2C)nc1NNc1cc(C)nc(-c2ccccc2)n1	3310 nM
Cc1ccc(OC(=O)CCC(=O)Oc2ccc(C)cc2C)c(C)c1	3510 nM
CCOC(=O)C1CCN(C(=O)c2ccc(OCC(=O)Nc3cccc(C(F)(F)F)c3)c(OC)c2)CC1	1750 nM
CCOC(=O)c1c(NC(=O)c2nn(CC)cc2Br)sc(C)c1C	11000 nM
CC(=O)Nc1ccc(NC(=O)c2nc(S(=O)(=O)Cc3ccccc3)ncc2Cl)cc1	773 nM
CC(=O)OCCCNc1cc(Sc2ccc(C)cc2)c2nonc2c1[N+](=O)[O-]	1100 nM
Cc1ccc(S(=O)(=O)c2ncccc2[N+](=O)[O-])cc1	1910 nM
O=C(CCN1CCc2ccccc2C(O)(c2ccccc2)C1)c1ccc2c(c1)OCCO2 (stereo not drawn)	23100 nM
Fc1ccc2[nH]c3c(N4CCc5ccccc5C4)ncnc3c2c1	466 nM
c1ccc(CC2CCN(c3ncnc4sccc34)CC2)cc1	362 nM
CCS(=O)(=O)c1ncc(Cl)c(C(=O)Nc2ccc(S(=O)(=O)N3CCCC(C)C3)cc2)n1 (stereo not drawn)	< 260 nM
C=C1C(=O)C23CCC4C(C)(C(=O)OC)CCCC4(C)C2CCC1(O)C3 (stereo not drawn)	976 nM
COc1ccc(-c2cc(C(F)(F)F)nc(S(C)(=O)=O)n2)cc1	4460 nM
COc1cc(Nc2nc(-c3ccccc3)c3cc(C)ccc3n2)cc(OC)c1OC	6550 nM
COC(=O)C12OCC34C(CC5C(C)=C(O)C(=O)CC5(C)C3C(O)C1O)OC(=O)C(OC(=O)/C=C(\C)C(C)C)C24 (stereo not drawn)	< 260 nM
O=S(=O)(c1cc(F)ccc1F)N1CCN(c2ncnc3ccccc23)CC1	1850 nM
Cc1cc([N+](=O)[O-])ccc1-c1ccc(C2Nc3ccccc3C(=O)N2O)o1 (stereo not drawn)	3320 nM
CCC1CSC(Nc2ccc(C(=O)/C=C/c3ccc(OC)c(OC)c3)cc2)=N1 (stereo not drawn)	4470 nM
CN(C)C1=NC[C@H](Cc2ccccc2)N1CCCC1CCCCC1	1470 nM
CCCCc1ccc(NC(=O)C(=O)NCCN2CCN(Cc3ccc([N+](=O)[O-])cc3)CC2)cc1	1130 nM
CC[C@@H](C)[C@H](NC(=O)OC(C)(C)C)c1nnc(S(=O)(=O)Cc2cc(C)ccc2C)o1	5770 nM
COc1ccc(C[C@H]2COC(=O)[C@@H]2Cc2ccc(OC3OC(CO)C(O)C(O)C3O)c(OC)c2)cc1OC (stereo partly drawn)	4430 nM

SMILES	AC50
Cc1ccc2c(c1)nnn2C1CCN(S(=O)(=O)c2ccc(C(=O)N3C(C)CCCC3C)cc2)CC1 (stereo not drawn)	695 nM
c1ccc(-c2ccc(-c3nc(-c4ccccn4)no3)cc2)cc1	3750 nM
CCN(CC)Cc1c(O)ccc2c1O/C(=C\C=C\c1ccccc1)C2=O	1960 nM
Cc1ccc2c(c1)c(C1=c3ccccc3=NC1=O)c(O)n2C	8850 nM
COc1ccc(S(=O)(=O)N(C)C)cc1NC(=O)C1CCN(c2ncnc3sc(C)c(C)c23)CC1	9210 nM
O=C(CN1C(=O)c2ccccc2S1(=O)=O)c1ccc2c(c1)OCCCO2	262 nM
CCCCNc1c(-c2cccc(-c3ccc(OC)cc3)c2)nc2cc(C)ccn12	12000 nM
c1ccc(CN2CCN(c3ncnc4c3[nH]c3ccccc34)CC2)cc1	2060 nM
CN(C)C1=NC[C@H](Cc2ccccc2)N1CCCC1CCCC1	2630 nM
Cc1ccccc1OCCOC(=O)c1cc(S(=O)(=O)N2CCCCC2)ccc1N1CCOCC1	3790 nM
Cc1ccnc2c1ccc1c(C)ccnc12	857 nM
COc1cc(CSc2nnnn2-c2ccc(C)cc2)cc(OC)c1OC	1020 nM
CSC1SCC2C(=O)N(C)C(C(C)C)C(=O)OCC(NC(=O)c3cnc4ccccc4n3)C(=O)NC(C)C(=O)N(C)C1C(=O)N(C)C(C(C)C)C(=O)OCC(NC(=O)c1cnc3ccccc3n1)C(=O)NC(C)C(=O)N2C (stereo not drawn)	< 260 nM
CC1(c2ccc3ccccc3c2)NC(=O)N(CC(=O)N2CCN(Cc3ccc(C#N)cc3)CC2)C1=O (stereo not drawn)	416 nM
Cc1ccc(S(=O)(=O)N2CCCCC2)cc1NC(=O)Cn1ncc(Cl)c(Cl)c1=O	4320 nM
CN(Cc1cccc(Cl)c1Cl)C(=O)c1cccc(S(=O)(=O)N2CCN(Cc3ccccc3)CC2)c1	3380 nM
Cc1cc(C)c(-c2csc(NC(=O)CCCc3nc4ccccc4c(=O)[nH]3)n2)c(C)c1	2970 nM
COc1ccc(-c2nc(-c3ccccn3)no2)cc1	1920 nM
Cc1ccc(Oc2ccc(OCC(=O)Nc3ccncc3)cc2)cc1	1550 nM
c1csc(CNc2ncnc3sccc23)c1	1800 nM
COc1ccc(Cn2c(SCc3ccccc3C)nc3cc(OC)c(OC)cc3c2=N)cc1	5460 nM
O=S(=O)(Nc1cccc2ncccc12)c1cccs1	4300 nM
CC(=O)NC(c1cccc([N+](=O)[O-])c1)c1ccc2cccnc2c1O (stereo not drawn)	889 nM
CCOC(=O)c1oc2ccc(S(=O)(=O)n3nc(-c4ccccc4)cc3N)cc2c1C	854 nM
CCN1C(=O)C(=Cc2cccc(OC)c2Oc2ccc([N+](=O)[O-])cc2[N+](=O)[O-])SC1=S	1890 nM
